Source: publication PMC8490825 (Frontiers in Molecular Biosciences, 2021)
Like-named read-outs stand apart in the source and are kept apart here. Where a SMILES comes first, the peptide text is derived from it. Bridges are numbered along the chain shown (N, C = ends).

Columns and labels:
hNaV1.1 = hNaV1.1 (Homo sapiens, UniProt P35498); assay: cell-based; format: cell-based
hNaV1.7 = hNaV1.7 (Homo sapiens, UniProt Q15858); assay: cell-based; format: cell-based
hNaV1.2 = hNaV1.2 (Homo sapiens, UniProt Q99250); assay: cell-based; details: N = 3-6; SEM; read-out: IC50 ± SEM, NaV1.2
hNaV1.3 = hNaV1.3 (Homo sapiens, UniProt Q9NY46); assay: cell-based; details: N = 3-4; SEM; read-out: IC50 ± SEM, NaV1.3
hNaV1.4 = hNaV1.4 (Homo sapiens, UniProt P35499); assay: cell-based; format: cell-based
hNaV1.5 = hNaV1.5 (Homo sapiens, UniProt Q14524); assay: cell-based; format: cell-based
hNaV1.6 = hNaV1.6 (Homo sapiens, UniProt Q9UQD0); assay: cell-based; details: N = 4; SEM; read-out: IC50 ± SEM, NaV1.6
[1] = tested on: rKV2.1/hNaV1.1 chimera containing the paddles S3–S4 from DII from NaV1.1; format: cell-based
[2] = tested on: endogenous K+ currents from non-transfected HEK293 cells; format: cell-based

Sequence of hNaV1.7 (Q15858 whole entry, looked up): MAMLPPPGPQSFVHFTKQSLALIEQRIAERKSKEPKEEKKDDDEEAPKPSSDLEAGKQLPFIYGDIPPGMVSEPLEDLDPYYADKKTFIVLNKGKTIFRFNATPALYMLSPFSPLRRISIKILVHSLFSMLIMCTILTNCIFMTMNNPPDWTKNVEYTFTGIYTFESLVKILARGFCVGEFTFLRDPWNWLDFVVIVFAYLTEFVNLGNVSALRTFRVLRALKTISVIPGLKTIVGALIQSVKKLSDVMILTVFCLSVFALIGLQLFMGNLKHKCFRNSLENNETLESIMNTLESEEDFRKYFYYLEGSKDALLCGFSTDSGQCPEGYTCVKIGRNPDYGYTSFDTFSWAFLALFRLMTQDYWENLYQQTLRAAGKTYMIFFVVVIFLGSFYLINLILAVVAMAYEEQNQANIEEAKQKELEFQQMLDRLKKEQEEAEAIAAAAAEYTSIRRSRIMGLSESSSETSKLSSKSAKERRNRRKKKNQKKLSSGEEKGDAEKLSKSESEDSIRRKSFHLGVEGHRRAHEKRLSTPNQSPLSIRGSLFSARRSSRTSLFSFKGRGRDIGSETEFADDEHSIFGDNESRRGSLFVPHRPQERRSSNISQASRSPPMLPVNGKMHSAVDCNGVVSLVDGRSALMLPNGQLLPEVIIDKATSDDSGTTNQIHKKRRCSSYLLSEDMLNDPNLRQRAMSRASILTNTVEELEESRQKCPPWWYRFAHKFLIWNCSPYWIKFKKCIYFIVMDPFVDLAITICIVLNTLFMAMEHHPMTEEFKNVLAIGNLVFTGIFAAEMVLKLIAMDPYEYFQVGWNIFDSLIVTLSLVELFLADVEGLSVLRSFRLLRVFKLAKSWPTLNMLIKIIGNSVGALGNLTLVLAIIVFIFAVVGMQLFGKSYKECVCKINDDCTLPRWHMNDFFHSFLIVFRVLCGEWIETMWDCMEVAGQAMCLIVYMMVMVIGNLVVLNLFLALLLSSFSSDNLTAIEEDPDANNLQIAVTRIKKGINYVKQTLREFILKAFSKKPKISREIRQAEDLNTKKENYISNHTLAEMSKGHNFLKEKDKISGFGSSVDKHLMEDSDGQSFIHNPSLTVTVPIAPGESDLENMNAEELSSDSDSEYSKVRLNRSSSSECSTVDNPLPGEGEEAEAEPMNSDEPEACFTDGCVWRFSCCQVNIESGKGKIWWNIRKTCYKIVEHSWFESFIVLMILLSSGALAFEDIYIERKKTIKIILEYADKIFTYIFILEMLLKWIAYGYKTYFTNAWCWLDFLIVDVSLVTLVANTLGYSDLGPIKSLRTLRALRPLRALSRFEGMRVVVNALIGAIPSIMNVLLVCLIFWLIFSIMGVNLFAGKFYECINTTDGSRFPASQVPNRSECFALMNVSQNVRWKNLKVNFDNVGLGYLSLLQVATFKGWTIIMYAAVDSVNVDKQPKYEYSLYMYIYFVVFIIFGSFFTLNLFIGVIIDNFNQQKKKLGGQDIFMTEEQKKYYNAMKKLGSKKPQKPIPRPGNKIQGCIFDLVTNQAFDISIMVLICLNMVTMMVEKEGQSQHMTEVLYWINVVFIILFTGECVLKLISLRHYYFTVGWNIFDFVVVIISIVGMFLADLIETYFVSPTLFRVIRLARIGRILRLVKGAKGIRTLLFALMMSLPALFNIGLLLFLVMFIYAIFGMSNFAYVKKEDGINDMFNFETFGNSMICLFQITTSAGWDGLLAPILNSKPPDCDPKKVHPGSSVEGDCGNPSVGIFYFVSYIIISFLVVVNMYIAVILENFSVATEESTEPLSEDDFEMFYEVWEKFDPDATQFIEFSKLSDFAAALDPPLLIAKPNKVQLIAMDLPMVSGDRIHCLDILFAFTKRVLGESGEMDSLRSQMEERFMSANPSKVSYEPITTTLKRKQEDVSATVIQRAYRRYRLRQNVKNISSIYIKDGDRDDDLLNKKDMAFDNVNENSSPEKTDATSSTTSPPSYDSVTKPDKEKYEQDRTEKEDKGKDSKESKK
Sequence of hNaV1.4 (P35499 whole entry, looked up): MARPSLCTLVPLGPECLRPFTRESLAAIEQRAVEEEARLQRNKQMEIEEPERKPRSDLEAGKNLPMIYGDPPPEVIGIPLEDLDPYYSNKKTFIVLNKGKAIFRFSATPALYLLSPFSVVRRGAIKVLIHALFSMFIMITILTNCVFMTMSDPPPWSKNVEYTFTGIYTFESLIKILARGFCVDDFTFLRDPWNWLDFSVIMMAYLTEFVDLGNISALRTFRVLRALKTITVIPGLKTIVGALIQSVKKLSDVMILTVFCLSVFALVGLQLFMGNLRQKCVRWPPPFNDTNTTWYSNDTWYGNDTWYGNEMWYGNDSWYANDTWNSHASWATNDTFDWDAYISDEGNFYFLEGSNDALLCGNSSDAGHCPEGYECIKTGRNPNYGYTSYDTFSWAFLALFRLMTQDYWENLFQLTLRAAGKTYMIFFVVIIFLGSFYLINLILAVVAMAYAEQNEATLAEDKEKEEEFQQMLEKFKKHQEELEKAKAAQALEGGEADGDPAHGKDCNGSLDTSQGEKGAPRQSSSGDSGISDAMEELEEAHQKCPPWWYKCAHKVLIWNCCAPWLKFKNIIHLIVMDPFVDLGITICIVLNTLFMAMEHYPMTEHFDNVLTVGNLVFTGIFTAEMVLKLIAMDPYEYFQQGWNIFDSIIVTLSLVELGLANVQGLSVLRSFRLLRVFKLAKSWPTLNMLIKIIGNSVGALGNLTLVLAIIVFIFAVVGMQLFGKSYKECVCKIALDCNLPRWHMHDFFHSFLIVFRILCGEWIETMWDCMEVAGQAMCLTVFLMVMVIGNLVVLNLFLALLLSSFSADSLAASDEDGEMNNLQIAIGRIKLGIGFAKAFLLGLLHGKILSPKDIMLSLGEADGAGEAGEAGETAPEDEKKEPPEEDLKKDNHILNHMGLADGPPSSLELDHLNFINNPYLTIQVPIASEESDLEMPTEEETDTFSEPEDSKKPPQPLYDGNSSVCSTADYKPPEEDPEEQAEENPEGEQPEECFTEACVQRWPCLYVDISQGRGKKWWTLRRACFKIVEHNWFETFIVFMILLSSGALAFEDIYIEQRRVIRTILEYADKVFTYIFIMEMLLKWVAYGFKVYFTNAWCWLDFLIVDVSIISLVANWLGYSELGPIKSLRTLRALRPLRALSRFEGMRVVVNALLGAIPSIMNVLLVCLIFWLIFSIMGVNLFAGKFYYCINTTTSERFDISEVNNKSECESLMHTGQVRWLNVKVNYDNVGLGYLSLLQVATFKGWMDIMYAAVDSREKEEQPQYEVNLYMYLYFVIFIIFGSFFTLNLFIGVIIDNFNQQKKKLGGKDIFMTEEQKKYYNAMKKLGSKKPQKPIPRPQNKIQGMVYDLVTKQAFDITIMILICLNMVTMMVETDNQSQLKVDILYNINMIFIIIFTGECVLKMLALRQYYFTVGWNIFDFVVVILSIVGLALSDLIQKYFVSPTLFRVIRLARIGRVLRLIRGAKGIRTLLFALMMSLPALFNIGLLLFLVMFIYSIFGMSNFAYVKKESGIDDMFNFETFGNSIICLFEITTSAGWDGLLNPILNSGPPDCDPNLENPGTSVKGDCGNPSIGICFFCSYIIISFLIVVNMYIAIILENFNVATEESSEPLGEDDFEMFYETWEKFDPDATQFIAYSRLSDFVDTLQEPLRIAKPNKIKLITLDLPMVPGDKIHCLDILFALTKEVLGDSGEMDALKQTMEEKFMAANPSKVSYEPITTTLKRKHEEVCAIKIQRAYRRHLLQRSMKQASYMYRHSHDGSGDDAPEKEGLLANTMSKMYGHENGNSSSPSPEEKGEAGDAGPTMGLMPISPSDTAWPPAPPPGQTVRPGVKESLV

For `CSCC[C@@H]1NC(=O)CNC(=O)[C@H](CC(C)C)NC(=O)[C@@H](NC(=O)[C@H](CC(=O)O)NC(=O)[C@H](CC(=O)O)NC(=O)CN)CSSC[C@@H]2NC(=O)[C@@H]3CSSC[C@@H](C(=O)N[C@@H](CCCCN)C(=O)N[C@@H](Cc4ccc(O)cc4)C(=O)N[C@@H](CCC(N)=O)C(=O)N[C@@H](CC(C)C)C(=O)N[C@@H](Cc4c[nH]c5ccccc45)C(=O)O)NC(=O)[C@H](Cc4c[nH]c5ccccc45)NC(=O)[C@H](CCC(N)=O)NC(=O)[C@H](CC(=O)O)NC(=O)[C@H](CCCCN)NC(=O)[C@H](CCCNC(=N)N)NC(=O)[C@H](CO)NC(=O)[C@H](CSSC[C@H](NC(=O)[C@H](CO)NC(=O)[C@H](CO)NC(=O)[C@H](Cc4ccccc4)NC1=O)C(=O)N[C@@H](CC(=O)O)C(=O)N[C@@H](C)C(=O)N[C@@H](CC(N)=O)C(=O)N[C@@H](CC(N)=O)C(=O)N[C@@H](CC(=O)O)C(=O)N[C@@H](CCCCN)C(=O)N3)NC(=O)[C@H](CCCCN)NC(=O)[C@H](CCCNC(=N)N)NC(=O)[C@H](CC(N)=O)NC(=O)[C@@H]1CCCN1C2=O` [Peptide P12A] (H-GDDCLGMFSSCDANNDKCCPNRKCSRKDQWCKYQLW-OH; disulfide 4-19, 11-24, 18-31), the IC50 (hNaV1.1) was > 1000 nM and the IC50 (hNaV1.7) was > 1000 nM.
In the case of `CSCC[C@@H]1NC(=O)CNC(=O)[C@H](CC(C)C)NC(=O)[C@@H](NC(=O)[C@H](CC(=O)O)NC(=O)[C@H](CC(=O)O)NC(=O)CN)CSSC[C@@H]2NC(=O)[C@@H]3CSSC[C@@H](C(=O)N[C@@H](CCCCN)C(=O)N[C@@H](Cc4ccc(O)cc4)C(=O)N[C@@H](CCC(N)=O)C(=O)N[C@@H](CC(C)C)C(=O)N[C@@H](Cc4c[nH]c5ccccc45)C(=O)O)NC(=O)[C@H](Cc4c[nH]c5ccccc45)NC(=O)[C@H](C)NC(=O)[C@H](CC(=O)O)NC(=O)[C@H](CCCCN)NC(=O)[C@H](CCCNC(=N)N)NC(=O)[C@H](CO)NC(=O)[C@H](CSSC[C@H](NC(=O)[C@H](CO)NC(=O)[C@H](CO)NC(=O)[C@H](Cc4ccccc4)NC1=O)C(=O)N[C@@H](CC(=O)O)C(=O)N1CCC[C@H]1C(=O)N[C@@H](CC(N)=O)C(=O)N[C@@H](CC(N)=O)C(=O)N[C@@H](CC(=O)O)C(=O)N[C@@H](CCCCN)C(=O)N3)NC(=O)[C@H](CCCCN)NC(=O)[C@H](CCCNC(=N)N)NC(=O)[C@H](CC(N)=O)NC(=O)[C@@H]1CCCN1C2=O` [Peptide Q28A] (H-GDDCLGMFSSCDPNNDKCCPNRKCSRKDAWCKYQLW-OH; disulfide 4-19, 11-24, 18-31), the IC50 (hNaV1.1) is reported as > 1000 nM and the IC50 (hNaV1.7) is reported as > 1000 nM.
`CSCC[C@@H]1NC(=O)CNC(=O)[C@H](CC(C)C)NC(=O)[C@@H](NC(=O)[C@H](CC(=O)O)NC(=O)[C@H](CC(=O)O)NC(=O)CN)CSSC[C@@H]2NC(=O)[C@@H]3CSSC[C@@H](C(=O)N[C@@H](CCCCN)C(=O)N[C@@H](Cc4ccc(O)cc4)C(=O)N[C@@H](C)C(=O)N[C@@H](CC(C)C)C(=O)N[C@@H](Cc4c[nH]c5ccccc45)C(=O)O)NC(=O)[C@H](Cc4c[nH]c5ccccc45)NC(=O)[C@H](CCC(N)=O)NC(=O)[C@H](CC(=O)O)NC(=O)[C@H](CCCCN)NC(=O)[C@H](CCCNC(=N)N)NC(=O)[C@H](CO)NC(=O)[C@H](CSSC[C@H](NC(=O)[C@H](CO)NC(=O)[C@H](CO)NC(=O)[C@H](Cc4ccccc4)NC1=O)C(=O)N[C@@H](CC(=O)O)C(=O)N1CCC[C@H]1C(=O)N[C@@H](CC(N)=O)C(=O)N[C@@H](CC(N)=O)C(=O)N[C@@H](CC(=O)O)C(=O)N[C@@H](CCCCN)C(=O)N3)NC(=O)[C@H](CCCCN)NC(=O)[C@H](CCCNC(=N)N)NC(=O)[C@H](CC(N)=O)NC(=O)[C@@H]1CCCN1C2=O` [Peptide Q33A] (H-GDDCLGMFSSCDPNNDKCCPNRKCSRKDQWCKYALW-OH; disulfide 4-19, 11-24, 18-31) was tested, and the IC50 (hNaV1.1) was 163 nM and the IC50 (hNaV1.7) was 99 nM.
In the case of `CSCC[C@@H]1NC(=O)CNC(=O)[C@H](CC(C)C)NC(=O)[C@@H](NC(=O)[C@H](CC(=O)O)NC(=O)[C@H](CC(=O)O)NC(=O)CN)CSSC[C@@H]2NC(=O)[C@@H]3CSSC[C@@H](C(=O)N[C@@H](CCCCN)C(=O)N[C@@H](Cc4ccc(O)cc4)C(=O)N[C@@H](CCC(N)=O)C(=O)N[C@@H](CC(C)C)C(=O)N[C@@H](Cc4c[nH]c5ccccc45)C(=O)O)NC(=O)[C@H](Cc4c[nH]c5ccccc45)NC(=O)[C@H](CCC(N)=O)NC(=O)[C@H](CC(=O)O)NC(=O)[C@H](CCCCN)NC(=O)[C@H](CCCNC(=N)N)NC(=O)[C@H](C)NC(=O)[C@H](CSSC[C@H](NC(=O)[C@H](CO)NC(=O)[C@H](CO)NC(=O)[C@H](Cc4ccccc4)NC1=O)C(=O)N[C@@H](CC(=O)O)C(=O)N1CCC[C@H]1C(=O)N[C@@H](CC(N)=O)C(=O)N[C@@H](CC(N)=O)C(=O)N[C@@H](CC(=O)O)C(=O)N[C@@H](CCCCN)C(=O)N3)NC(=O)[C@H](CCCCN)NC(=O)[C@H](CCCNC(=N)N)NC(=O)[C@H](CC(N)=O)NC(=O)[C@@H]1CCCN1C2=O` [Peptide S24A] (H-GDDCLGMFSSCDPNNDKCCPNRKCARKDQWCKYQLW-OH; disulfide 4-19, 11-24, 18-31), the IC50 (hNaV1.1) is reported as > 1000 nM and the IC50 (hNaV1.7) is reported as 920 nM.
In the case of `CSCC[C@@H]1NC(=O)CNC(=O)[C@H](CC(C)C)NC(=O)[C@@H](NC(=O)[C@H](CC(=O)O)NC(=O)[C@H](CC(=O)O)NC(=O)CN)CSSC[C@@H]2NC(=O)[C@@H]3CSSC[C@@H](C(=O)N[C@@H](CCCCN)C(=O)N[C@@H](Cc4ccc(O)cc4)C(=O)N[C@@H](CCC(N)=O)C(=O)N[C@@H](CC(C)C)C(=O)N[C@@H](C)C(=O)O)NC(=O)[C@H](Cc4c[nH]c5ccccc45)NC(=O)[C@H](CCC(N)=O)NC(=O)[C@H](CC(=O)O)NC(=O)[C@H](CCCCN)NC(=O)[C@H](CCCNC(=N)N)NC(=O)[C@H](CO)NC(=O)[C@H](CSSC[C@H](NC(=O)[C@H](CO)NC(=O)[C@H](CO)NC(=O)[C@H](Cc4ccccc4)NC1=O)C(=O)N[C@@H](CC(=O)O)C(=O)N1CCC[C@H]1C(=O)N[C@@H](CC(N)=O)C(=O)N[C@@H](CC(N)=O)C(=O)N[C@@H](CC(=O)O)C(=O)N[C@@H](CCCCN)C(=O)N3)NC(=O)[C@H](CCCCN)NC(=O)[C@H](CCCNC(=N)N)NC(=O)[C@H](CC(N)=O)NC(=O)[C@@H]1CCCN1C2=O` [Peptide W35A] (H-GDDCLGMFSSCDPNNDKCCPNRKCSRKDQWCKYQLA-OH; disulfide 4-19, 11-24, 18-31), the IC50 (hNaV1.1) is reported as > 1000 nM and the IC50 (hNaV1.7) is reported as > 1000 nM.
With `CSCC[C@@H]1NC(=O)CNC(=O)[C@H](CC(C)C)NC(=O)[C@@H](NC(=O)[C@H](CC(=O)O)NC(=O)[C@H](CC(=O)O)NC(=O)CN)CSSC[C@@H]2NC(=O)[C@@H]3CSSC[C@@H](C(=O)N[C@@H](CCCCN)C(=O)N[C@@H](C)C(=O)N[C@@H](CCC(N)=O)C(=O)N[C@@H](CC(C)C)C(=O)N[C@@H](Cc4c[nH]c5ccccc45)C(=O)O)NC(=O)[C@H](Cc4c[nH]c5ccccc45)NC(=O)[C@H](CCC(N)=O)NC(=O)[C@H](CC(=O)O)NC(=O)[C@H](CCCCN)NC(=O)[C@H](CCCNC(=N)N)NC(=O)[C@H](CO)NC(=O)[C@H](CSSC[C@H](NC(=O)[C@H](CO)NC(=O)[C@H](CO)NC(=O)[C@H](Cc4ccccc4)NC1=O)C(=O)N[C@@H](CC(=O)O)C(=O)N1CCC[C@H]1C(=O)N[C@@H](CC(N)=O)C(=O)N[C@@H](CC(N)=O)C(=O)N[C@@H](CC(=O)O)C(=O)N[C@@H](CCCCN)C(=O)N3)NC(=O)[C@H](CCCCN)NC(=O)[C@H](CCCNC(=N)N)NC(=O)[C@H](CC(N)=O)NC(=O)[C@@H]1CCCN1C2=O` [Peptide Y32A] (H-GDDCLGMFSSCDPNNDKCCPNRKCSRKDQWCKAQLW-OH; disulfide 4-19, 11-24, 18-31) the IC50 (hNaV1.1) was > 1000 nM and the IC50 (hNaV1.7) was > 1000 nM.
For `CC[C@H](C)[C@@H]1NC(=O)CNC(=O)[C@H](CC(C)C)NC(=O)[C@@H](NC(=O)CNC(=O)CN)CSSC[C@@H]2NC(=O)[C@@H]3CSSC[C@@H](C(=O)N[C@@H](CCCCN)C(=O)N[C@@H](Cc4c[nH]c5ccccc45)C(=O)N[C@@H](CCCCN)C(=O)N[C@@H](CC(C)C)C(=O)N[C@@H](Cc4c[nH]c5ccccc45)C(=O)O)NC(=O)[C@H](Cc4c[nH]c5ccccc45)NC(=O)[C@H](CCCNC(=N)N)NC(=O)[C@H](Cc4c[nH]cn4)NC(=O)[C@H](CCCCN)NC(=O)[C@H](CCCCN)NC(=O)[C@H](CO)NC(=O)[C@H](CSSC[C@H](NC(=O)[C@H](CO)NC(=O)[C@H](CO)NC(=O)[C@H](C)NC1=O)C(=O)N[C@@H](CC(=O)O)C(=O)N1CCC[C@H]1C(=O)N[C@@H](CCC(=O)O)C(=O)N[C@@H](CC(N)=O)C(=O)N[C@@H](CC(=O)O)C(=O)N[C@@H](CCCCN)C(=O)N3)NC(=O)[C@H](C(C)C)NC(=O)[C@H](CCCNC(=N)N)NC(=O)[C@H](CC(N)=O)NC(=O)[C@H](Cc1ccc(O)cc1)NC2=O` [Tap1a-OPT2] (H-GGCLGIASSCDPENDKCCYNRVCSKKHRWCKWKLW-OH; disulfide 3-18, 10-23, 17-30), the IC50 (hNaV1.1; N = 4-5, SEM, read-out: IC50 ± SEM, NaV1.1) was 54 ± 9 nM, the IC50 (hNaV1.2) was 43 ± 5 nM and the IC50 (hNaV1.3) was 96 ± 9 nM. For the same compound, the “inhibition of NaV1.4, in words” value (hNaV1.4) was “did not significantly inhibit”, the “loss of activity for NaV1.4 compared to Tap1a-OPT1” value (hNaV1.4) was “at least 10 fold” and the IC50 (hNaV1.4; N = 4, read-out: IC50 ± SEM, NaV1.4) was > 1000 nM. The “inhibition of NaV1.5, in words” value (hNaV1.5) was “did not significantly inhibit”, the IC50 (hNaV1.5; N = 3-4, read-out: IC50 ± SEM, NaV1.5) was > 1000 nM and the IC50 (hNaV1.6) was 75 ± 11 nM. For the same compound, the “loss of activity for NaV1.7 compared to Tap1a-OPT1” value (hNaV1.7) was 2 fold and the IC50 (hNaV1.7; N = 3-4, SEM, read-out: IC50 ± SEM, NaV1.7) was 35 ± 2 nM.
`COC(=O)C1=C(C)NC(C)=C(C(=O)OC)C1c1ccccc1[N+](=O)[O-]` [nifedipine] was tested, and the “effect on potassium currents of cells transfected with the chimera KV2.1/NaV1.1 VSDII” value [1] was “sensitive” and the “effect on endogenous potassium currents of non-transfected HEK293 cells” value [2] was “inhibited”.
